Earlier results as cited in patent US20220323396A1, “COMPOSITIONS AND METHODS FOR TREATING VIRAL INFECTION USING ANTIVIRAL COCKTAILS” (priority 2020, published 2022).

Tests used:
human tryptase = human tryptase (Homo sapiens, UniProt Q15661)
thrombin = thrombin (Homo sapiens, UniProt P00734); conditions: values ranging; potent, specific and reversible inhibition

Sequence of human tryptase (Q15661 31-275): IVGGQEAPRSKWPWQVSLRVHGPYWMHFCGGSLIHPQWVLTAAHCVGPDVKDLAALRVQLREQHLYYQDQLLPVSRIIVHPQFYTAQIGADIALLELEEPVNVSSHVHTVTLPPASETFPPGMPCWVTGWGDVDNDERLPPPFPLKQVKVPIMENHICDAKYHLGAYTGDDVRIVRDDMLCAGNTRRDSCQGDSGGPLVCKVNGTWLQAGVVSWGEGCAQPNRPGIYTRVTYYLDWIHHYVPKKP

In the case of `N=C(N)c1ccc2cc(OC(=O)c3ccc(N=C(N)N)cc3)ccc2c1` [Nafamostat], the IC50 (human tryptase) is listed as 0.016 nM and the IC50 (thrombin) is listed as 330 to 1900 nM.
